# In PubChem BioAssay AID1695 (PCMD, 2009):
# Calls of active or inactive are those of the source. No rule for the calls is given here.
# Biological target: dTDP-4-dehydrorhamnose reductase (Mycobacterium tuberculosis (strain ATCC 25618 / H37Rv)) + dTDP-4-dehydrorhamnose 3,5-epimerase (Mycobacterium tuberculosis (strain ATCC 25618 / H37Rv)) (UniProt P9WH09+P9WH11)
# Assay: Coupled RmlC and RmlD enzyme inhibition, Mycobacterium tuberculosis, dose response confirmation (AID 1695)
# Details: coupled RmlC/RmlD enzyme assay
# dTDP-4-dehydrorhamnose reductase (Mycobacterium tuberculosis (strain ATCC 25618 / H37Rv)) + dTDP-4-dehydrorhamnose 3,5-epimerase (Mycobacterium tuberculosis (strain ATCC 25618 / H37Rv)), sequence (P9WH09 whole entry, looked up): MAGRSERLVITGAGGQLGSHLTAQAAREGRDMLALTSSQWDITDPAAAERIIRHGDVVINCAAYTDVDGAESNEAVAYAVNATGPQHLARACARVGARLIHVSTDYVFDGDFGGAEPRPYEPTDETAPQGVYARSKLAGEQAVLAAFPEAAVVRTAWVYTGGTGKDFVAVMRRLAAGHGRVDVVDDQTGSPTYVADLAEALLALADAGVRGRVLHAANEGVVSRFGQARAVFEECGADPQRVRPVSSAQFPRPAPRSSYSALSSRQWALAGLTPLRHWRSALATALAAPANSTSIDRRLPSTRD
# dTDP-4-dehydrorhamnose reductase (Mycobacterium tuberculosis (strain ATCC 25618 / H37Rv)) + dTDP-4-dehydrorhamnose 3,5-epimerase (Mycobacterium tuberculosis (strain ATCC 25618 / H37Rv)), sequence (P9WH11 whole entry, looked up): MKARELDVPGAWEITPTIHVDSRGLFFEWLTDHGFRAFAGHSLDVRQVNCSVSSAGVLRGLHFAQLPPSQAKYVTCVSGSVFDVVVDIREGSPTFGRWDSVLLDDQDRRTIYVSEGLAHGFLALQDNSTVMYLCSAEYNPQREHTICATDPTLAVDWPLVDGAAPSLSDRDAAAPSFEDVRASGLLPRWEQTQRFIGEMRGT
row,Compound,IC50
1,CCCCCCc1cc2cc(-c3nnc(-c4ccccc4OC)o3)c(=O)oc2cc1O,inactive
2,O=C1CCC(=O)N1c1nc2nc(-c3ccccc3)cc(-c3ccccc3)n2n1,inactive
3,CC1=CC(c2ccccc2)n2nc(NS(=O)(=O)c3ccc(C)cc3)nc2N1 (stereo unspecified),inactive
4,CC1=C(C#N)C(c2cccnc2)C2=C(CC(C)(C)CC2=O)N1 (stereo unspecified),inactive
5,COc1ccccc1N=c1oc2cc(O)ccc2cc1C(N)=O,inactive
6,CCOC(=O)C1=C(CSc2nc(-c3ccccc3)ccc2C#N)OC(N)=C(C#N)C1c1cccnc1 (stereo unspecified),inactive
7,C=CCOC(=O)C1=C(C)NC(SCC(=O)NC(=O)OCC)=C(C#N)C1c1cccnc1 (stereo unspecified),inactive
8,COc1ccc(OC)c(/C=N/NC(=O)CC2C(=O)NN=C2C)c1 (stereo unspecified),inactive
9,CC1=C(C#N)C(c2cccnc2)C2=C(CCCC2=O)N1 (stereo unspecified),inactive
10,COC(=O)/C(=C/Nc1cccc2ccccc12)[N+](=O)[O-],inactive
11,COC(=O)C1=CNC=C(C(=O)OC)C1c1cccc(OC)c1,inactive
